The results in this text go back to patent publication US20020197365A1, “Highly acidic metalated mixture of inorganic acids” (priority 2001, published 2002).

The conditions of this data set: in vivo.

As to `O=S(=O)(O)O` [sulfuric acid], the “irritation or injury of a hand put into the solution” value is on record as “an irritation would occur within a relatively short span of time”.
